Experimental data reported in patent US10844074B2, “Heterocycle compounds and uses thereof” (ZHEJIANG JIANFENG-YIEN BIOTECHNOLOGY CO., LTD., priority 2015, dated 2020).

Key:
BTK = BTK (Homo sapiens, UniProt Q06187); test: BTK Enzyme Assay; assay type: biochemical; settings: 1 uM compound; read-out: BTK (% inh @ 1 uM)
Protocol: The following TABLE II lists compounds representative of the invention and their activity in BTK assays. In these assays, the following grading was used: A: >30% inhibition @1 μM; B: <30% inhibition @1 μM.

EGFR T790M = EGFR T790M (Homo sapiens, UniProt P00533, T790M); test: EGFR Enzyme Assay; assay type: biochemical; settings: 1 uM compound, read-out: T790M (% inh @ 1 uM)
Sequence of EGFR T790M (P00533 25-1210 T790M): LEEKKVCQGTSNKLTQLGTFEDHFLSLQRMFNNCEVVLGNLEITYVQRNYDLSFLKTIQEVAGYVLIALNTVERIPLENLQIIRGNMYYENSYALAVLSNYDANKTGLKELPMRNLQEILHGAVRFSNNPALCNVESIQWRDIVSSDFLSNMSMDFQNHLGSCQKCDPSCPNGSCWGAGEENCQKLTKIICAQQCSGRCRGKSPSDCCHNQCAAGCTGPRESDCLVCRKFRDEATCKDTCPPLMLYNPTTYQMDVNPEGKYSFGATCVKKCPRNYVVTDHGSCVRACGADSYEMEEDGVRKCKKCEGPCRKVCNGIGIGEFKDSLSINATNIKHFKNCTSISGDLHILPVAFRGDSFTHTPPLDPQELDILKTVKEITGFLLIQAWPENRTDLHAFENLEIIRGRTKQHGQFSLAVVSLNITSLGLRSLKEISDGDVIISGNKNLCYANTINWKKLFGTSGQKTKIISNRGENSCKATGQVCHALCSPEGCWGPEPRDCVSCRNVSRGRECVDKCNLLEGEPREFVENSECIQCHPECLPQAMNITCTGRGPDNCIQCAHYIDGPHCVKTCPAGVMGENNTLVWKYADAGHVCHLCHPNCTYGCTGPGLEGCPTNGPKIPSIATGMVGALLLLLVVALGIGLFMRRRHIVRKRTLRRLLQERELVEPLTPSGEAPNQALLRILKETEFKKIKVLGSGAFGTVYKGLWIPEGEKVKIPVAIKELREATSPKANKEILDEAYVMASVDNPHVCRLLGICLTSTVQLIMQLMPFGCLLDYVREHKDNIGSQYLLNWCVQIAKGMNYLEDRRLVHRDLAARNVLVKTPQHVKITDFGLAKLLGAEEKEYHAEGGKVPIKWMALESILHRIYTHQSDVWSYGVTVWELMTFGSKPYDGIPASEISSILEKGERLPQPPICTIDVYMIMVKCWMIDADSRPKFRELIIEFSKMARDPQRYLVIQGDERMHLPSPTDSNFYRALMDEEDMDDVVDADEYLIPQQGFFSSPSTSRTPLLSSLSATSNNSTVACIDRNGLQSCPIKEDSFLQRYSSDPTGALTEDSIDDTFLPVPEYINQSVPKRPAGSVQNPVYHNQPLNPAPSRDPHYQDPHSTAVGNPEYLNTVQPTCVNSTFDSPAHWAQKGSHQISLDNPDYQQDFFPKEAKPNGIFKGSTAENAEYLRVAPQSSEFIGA
Protocol: The following TABLE III lists compounds representative of the invention and their activity in EGFR assays. In these assays, the following grading was used: A: >50% @1 μM; B: <50% @ 1 μM.

Sequence of BTK (Q06187 whole entry): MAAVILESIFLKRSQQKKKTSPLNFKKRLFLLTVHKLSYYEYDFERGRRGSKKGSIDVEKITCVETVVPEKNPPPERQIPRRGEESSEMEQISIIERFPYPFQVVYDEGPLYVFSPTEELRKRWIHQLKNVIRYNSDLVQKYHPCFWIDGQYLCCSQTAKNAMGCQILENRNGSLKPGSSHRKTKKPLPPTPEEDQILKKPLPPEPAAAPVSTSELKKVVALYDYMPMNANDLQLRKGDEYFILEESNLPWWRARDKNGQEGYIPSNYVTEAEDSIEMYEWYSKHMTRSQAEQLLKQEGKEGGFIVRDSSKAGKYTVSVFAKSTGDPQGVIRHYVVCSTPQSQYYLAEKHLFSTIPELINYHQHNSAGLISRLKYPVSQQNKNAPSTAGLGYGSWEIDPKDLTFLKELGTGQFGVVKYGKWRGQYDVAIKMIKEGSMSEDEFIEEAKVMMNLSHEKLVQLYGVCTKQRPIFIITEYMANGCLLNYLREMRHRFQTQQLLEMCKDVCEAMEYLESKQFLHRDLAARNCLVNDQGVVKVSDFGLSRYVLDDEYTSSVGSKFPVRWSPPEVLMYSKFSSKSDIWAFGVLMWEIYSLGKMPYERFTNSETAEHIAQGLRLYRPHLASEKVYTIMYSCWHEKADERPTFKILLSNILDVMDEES

Row | Structure (SMILES) | inhibition at 1 µM (BTK) [%] | inhibition at 1 µM (EGFR T790M) [%]
1 | C=CC(=O)Nc1cc(NC2=NC(c3ccccc3)C3SC=CC3=N2)c(OC)cc1N1CCN(C)CC1 (centres unmarked) [Compound 18, N-[4-methoxy-2-(4-methylpiperazin-1-yl)-5-[(4-phenyl-4,4a-dihydrothieno[3,2-d]pyrimidin-2-yl)amino]phenyl]prop-2-enamide] | < 30 | > 50
2 | C=CC(=O)Nc1cc(Nc2nc(-c3cccc(N(C)C)c3)c3sccc3n2)c(OC)cc1N1CCN(C)CC1 [Compound 24, N-[5-[[4-[3-(dimethylamino)phenyl]thieno[3,2-d]pyrimidin-2-yl]amino]-4-methoxy-2-(4-methylpiperazin-1-yl)phenyl]prop-2-enamide] | > 30 | < 50
3 | C=CC(=O)Nc1cc(Nc2nc(-c3ccccc3)c3sccc3n2)c(OC)cc1N1CCN(C)CC1 [Compound 26, N-[4-methoxy-2-(4-methylpiperazin-1-yl)-5-[(4-phenylthieno[3,2-d]pyrimidin-2-yl)amino]phenyl]prop-2-enamide] | > 30 | < 50
4 | C=CC(=O)Nc1cc(Nc2nc(-c3cccc(NC)c3)c3sccc3n2)c(OC)cc1OCCN1CCOCC1 [Compound 35, N-[4-methoxy-5-[[4-[3-(methylamino)phenyl]thieno[3,2-d]pyrimidin-2-yl]amino]-2-(2-morpholinoethoxy)phenyl]prop-2-enamide] | < 30 | > 50
5 | C=CC(=O)Nc1cc(Nc2nc(-c3ccc(NC)cc3)c3sccc3n2)c(OC)cc1N1CCOCC1 [Compound 37, N-[4-methoxy-5-[[4-[4-(methylamino)phenyl]thieno[3,2-d]pyrimidin-2-yl]amino]-2-morpholino-phenyl]prop-2-enamide] | > 30 | > 50
6 | C=CC(=O)Nc1cc(Nc2nc(-c3ccccc3N(C)C)c3ccsc3n2)c(OC)cc1N1CCN(C)CC1 [Compound 50, N-[5-[[4-[2-(dimethylamino)phenyl]thieno[2,3-d]pyrimidin-2-yl]amino]-4-methoxy-2-(4-methylpiperazin-1-yl)phenyl]prop-2-enamide] | > 30 | < 50
7 | C=CC(=O)Nc1cc(N(C)c2nc(-c3cn(C)c4ccccc34)c3sccc3n2)c(OC)cc1N1CCOCC1 [Compound 52, N-[4-methoxy-5-[methyl-[4-(1-methylindol-3-yl)thieno[3,2-d]pyrimidin-2-yl]amino]-2-morpholino-phenyl]prop-2-enamide] | < 30 | < 50

Now from value to molecule:

Row | inhibition at 1 µM (BTK) [%] | inhibition at 1 µM (EGFR T790M) [%] | Structure (SMILES)
8 | > 30 | < 50 | C=CC(=O)Nc1cc(Nc2nc(-c3cn(C)c4ccccc34)c3sccc3n2)c(OC)cc1N1CCOCC1 [Compound 36, N-[4-methoxy-5-[[4-(1-methylindol-3-yl)thieno[3,2-d]pyrimidin-2-yl]amino]-2-morpholino-phenyl]prop-2-enamide]
9 | > 30 | > 50 | C=CC(=O)Nc1cc(Nc2nc(-c3cccc(NC)c3)c3ccsc3n2)c(OC)cc1N(C)CC [Compound 41, N-[2-[ethyl(methyl)amino]-4-methoxy-5-[[4-[3-(methylamino)phenyl]thieno[2,3-d]pyrimidin-2-yl]amino]phenyl]prop-2-enamide]
10 | < 30 | < 50 | C=CC(=O)Nc1cc(Nc2nc(-c3ccccc3NC)c3ccsc3n2)c(OC)cc1N1CCN(C)CC1 [Compound 43, N-[4-methoxy-5-[[4-[2-(methylamino)phenyl]thieno[2,3-d]pyrimidin-2-yl]amino]-2-(4-methylpiperazin-1-yl)phenyl]prop-2-enamide]
